Measured values reported in patent US11319320B2, “PIM kinase inhibitor compositions, methods, and uses thereof” (Snap Bio, Inc., priority 2017, dated 2022).
Several values for one entry are separate records, joined by “and”; a condition that tells them apart may be missing. Identical values can stand only once. Like-named read-outs stand apart in the source and are kept apart here.

What was measured:
PIM1 [1] = biological target: T1, PIM1 (Homo sapiens, UniProt P11309); assay: Biochemical kinase assay, radiolabeled ATP filter binding (Reaction Biology); settings: 10 μM ATP, peptide substrate […]
PIM3 [2] = biological target: T2, PIM3 (Homo sapiens, UniProt Q86V86); assay: as above; settings: 10 μM ATP, peptide substrate RSRHSSYPAGT
PIM1 [3] = biological target: T1, PIM1; assay: KINOMEscan competition binding assay (Kd)
PIM2 [4] = biological target: T3, PIM2 (Homo sapiens, UniProt Q9P1W9); assay: KINOMEscan competition binding assay (Kd); settings: run in duplicate
PIM3 [5] = biological target: T2, PIM3; assay: KINOMEscan competition binding assay (Kd); settings: run in duplicate
PIM2 [6] = biological target: T3, PIM2; assay: Biochemical kinase assay, radiolabeled ATP filter binding (Reaction Biology); settings: 10 μM ATP, peptide substrate […]
PANC-1 = assay: Cell Titer-Glo 2.0 luminescent cell viability assay; type: cell-based, human; settings: 72 hour incubation, cell viability (ATP luminescence)
Method: To obtain growth inhibition data of endodermal cancer cells for PIM kinase inhibitors, Compound 122 was tested against SNU-16, HepG2, MIA PaCa-2, SW480, DU145, HEK-293, PANC-1, and THLE-3 cell lines using CELL TITER-GLO® 2.0 Luminescent Cell Viability Assay (Promega Corporation, Madison, Wis.) at Reaction Biology Corporation (Maven, Pa.). All cell lines were purchased from American Type Culture Collection (ATCC, Manassas, Va.) and maintained in the recommended culture media in the presence of 10% fetal bovind serum, […] of penicillin and 100 µg/mL of streptomycin at 37° C. in a humidified atmosphere of 5% CO2 and 95% air. To initiate the growth inhibition study, Compound 122 was diluted in DMSO solution with 10-dose and 3-fold dilutions in a source plate starting at 50 mM. […] The cells in the cell culture plates were incubated with the compounds at 37° C. for 72 hours in a humidified atmosphere of 5% CO2 and 95% air. After a 72 hour incubation period, 25 μl of Cell Titer Glo 2.0 reagent was added to each well. The contents were mixed on an orbital shaker for 2 minutes and incubated at room temperature for 15 minutes to stabilize the luminescent signal. Luminescence was recorded by Envision 2104 Multilabel Reader (PerkinElmer, Santa Clara, Calif.). The number of viable cells in culture was determined based on quantitation of the ATP present in each culture well. […]

SW480 = assay: as above; type: cell-based; settings: Homo sapiens, 72 hour incubation, cell viability (ATP luminescence)
Method: (§1) To obtain growth inhibition data of endodermal cancer cells for PIM kinase inhibitors, Compound 122 was tested against SNU-16, HepG2, MIA PaCa-2, SW480, DU145, HEK-293, PANC-1, and THLE-3 cell lines using CELL TITER-GLO® 2.0 Luminescent Cell Viability Assay (Promega Corporation, Madison, Wis.) at Reaction Biology Corporation (Maven, Pa.). All cell lines were purchased from American Type Culture Collection (ATCC, Manassas, Va.) and maintained in the recommended culture media in the presence of 10% fetal bovind serum, […] of penicillin and 100 µg/mL of streptomycin at 37° C. in a humidified atmosphere of 5% CO2 and 95% air. To initiate the growth inhibition study, Compound 122 was diluted in DMSO solution with 10-dose and 3-fold dilutions in a source plate starting at 50 mM. […] The cells in the cell culture plates were incubated with the compounds at 37° C. for 72 hours in a humidified atmosphere of 5% CO2 and 95% air. After a 72 hour incubation period, 25 μl of Cell Titer Glo 2.0 reagent was added to each well. The contents were mixed on an orbital shaker for 2 minutes and incubated at room temperature for 15 minutes to stabilize the luminescent signal. Luminescence was recorded by Envision 2104 Multilabel Reader (PerkinElmer, Santa Clara, Calif.). The number of viable cells in culture was determined based on quantitation of the ATP present in each culture well. […] Table 5 lists the IC50 values for Compound 122 in the tested cell lines.

SNU-16 = assay: as above; type: cell-based; settings: Homo sapiens, 72 hour incubation, cell viability (ATP luminescence)
Method: as §1

HEK-293 = assay: as above; type: cell-based; settings: Homo sapiens, HEK293; 72 hour incubation, cell viability (ATP luminescence)
Method: as §1

MIA PaCa-2 = assay: as above; type: cell-based; settings: Homo sapiens, 72 hour incubation, cell viability (ATP luminescence)
Method: as §1

THLE-3 = assay: as above; type: cell-based; settings: THLE3; 72 hour incubation, cell viability (ATP luminescence)
Method: as §1

DU145 = assay: as above; type: cell-based; settings: Homo sapiens, DU-145; 72 hour incubation, cell viability (ATP luminescence)
Method: as §1

HepG2 = assay: as above; type: cell-based; settings: Homo sapiens, 72 hour incubation, cell viability (ATP luminescence)
Method: as §1

[7] = competition binding, run in duplicate, read-out: Kd PIM1
[8] = competition binding, read-out: Kd PIM3

Row | IC50 (PIM3 [2]) [nM] | Kd (PIM1 [3]; [7]) [µM] | Kd (PIM2 [4]) [nM] | Kd (PIM3 [5]; [8]) | IC50 (PIM2 [6]) [nM] | SMILES | also measured
1 |  | 6.3 | 2600 | 130 nM |  | O=C1NC(=O)c2c1c1c3cccc(F)c3[nH]c1c1[nH]c3c(F)cccc3c21 [Compound 131] | 
2 |  | > 10 | > 10000 | > 10000 nM |  | O=C1NC(=O)c2c1c1c3cc(Br)ccc3[nH]c1c1[nH]c3ccc(Br)cc3c21 [Compound 137] | 
3 |  | > 10 | > 10000 | > 10000 nM |  | O=C1NC(=O)c2c1c1c3ccc(Br)cc3[nH]c1c1[nH]c3cc(Br)ccc3c21 [Compound 138] | 
4 |  | > 3 | > 3000 | > 3000 nM |  | O=C1NC(=O)c2c1c1c3cccc(Br)c3[nH]c1c1[nH]c3c(Br)cccc3c21 [Compound 139] | 
5 |  | > 10 | > 10000 | > 10000 nM |  | N#Cc1ccc2c(c1)[nH]c1c3[nH]c4cc(C#N)ccc4c3c3c(c21)C(=O)NC3=O [Compound 146] | 
6 |  | > 3 | > 3000 | > 3000 nM |  | N#Cc1cccc2c1[nH]c1c3[nH]c4c(C#N)cccc4c3c3c(c21)C(=O)NC3=O [Compound 147] | 
7 | 10 |  |  |  | 7650 | CN(C)C[C@@H]1CCn2cc(c3ccccc32)C2=C(C(=O)NC2=O)c2cn(c3ccccc23)CCO1 [Ruboxistaurin, ruboxistaurin, reference compound] | 

Continued, compound first:

Row | SMILES | IC50 (PIM3 [2]) [nM] | Kd (PIM1 [3]; [7]) [µM] | Kd (PIM2 [4]) [nM] | Kd (PIM3 [5]; [8]) | IC50 (PIM2 [6]) [nM] | also measured
8 | O=C1NC(=O)c2c1c1c3ccccc3[nH]c1c1[nH]c3ccccc3c21 [Arcyriaflavin A, 12,13-dihydro-5H-indolo[2,3-a]pyrrolo[3,4-c]carbazole-5,7(6H)-dione, reference compound] | 0.3 | 0.021 | 19 | 2 nM and 1.9 nM | 21 | IC50 (PIM1 [1]): 2.2 nM
9 | O=C1NC(=O)c2c1c1c3ccccc3[nH]c1c1c2c2ccccc2n1CCN1CCOCC1 [Compound 3, 12,13-dihydro-12-(2-(4-morpholine)ethyl)-5H-Indolo[2,3-a]pyrrolo[3,4-c]carbazole-5,7(6H)-dione] | 0.2 |  |  |  | 138 | IC50 (PIM1 [1]): 1.6 nM
10 | O=C1NC(=O)c2c1c1c3ccc(O)cc3[nH]c1c1[nH]c3cc(O)ccc3c21 [Compound 122] | 0.03 | 0.011 | 9 | 3 nM | 5.4 | IC50 (PIM1 [1]): 0.5 nM; IC50 PANC-1 (PANC-1): no inhibition; IC50 (SW480): 2890 nM; IC50 (SNU-16): 700 nM; IC50 (HEK-293): 2700 nM; IC50 (MIA PaCa-2): 4810 nM; IC50 (THLE-3): 4620 nM; IC50 (DU145): 2330 nM; IC50 (HepG2): 970 nM
11 | O=C1NC(=O)c2c1c1c3cccc(O)c3[nH]c1c1[nH]c3c(O)cccc3c21 [Compound 123] | 0.2 | 0.13 | 84 | 6.4 nM | 55 | IC50 (PIM1 [1]): 3.9 nM
12 | O=C1NC(=O)c2c1c1c([nH]c3cccc(F)c31)c1[nH]c3cccc(F)c3c21 [Compound 128] |  | 0.28 | 260 | 24 nM |  | 
13 | O=C1NC(=O)c2c1c1c3cc(F)ccc3[nH]c1c1[nH]c3ccc(F)cc3c21 [Compound 129, 3,9-difluoro-arcyriaflavin A] |  |  | 77 | 27 nM |  | Kd (PIM1 [3]; text value printed in μM, read-out: Kd for PIM1): 2.5 µM
14 | O=C1NC(=O)c2c1c1c3ccc(F)cc3[nH]c1c1[nH]c3cc(F)ccc3c21 [Compound 130] |  | 0.7 | 150 | 48 nM |  | 
15 | COC(=O)[C@@]1(O)C[C@H]2O[C@]1(C)n1c3ccccc3c3c4c(c5c6ccccc6n2c5c31)C(=O)NC4 [Compound K252a, K252a, reference compound] |  |  |  |  |  | Kd (PIM3 [5]; Kd PIM3, competition binding): ~10 nM
